Experimental data published in ChEMBL document CHEMBL1201862, “PubChem BioAssay data set” (2004).
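96-well plates; 48 h exposure; 5 concentrations. Endpoints by linear interpolation between flanking doses. Not reached: highest tested concentration assigned. At the GI50, growth is halved.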 Activity calls are given as the source filed them. No stated cut-off is given here; in the data, active = GI50 up to about 1.1 µM and inactive = higher.

Experiments:
Assay in all cases: NCI tumour cell line growth inhibition, 48 h
786-0 = test system: 786-0
A498 = test system: A498
A549 = test system: A549
ACHN = test system: ACHN
CAKI-1 = test system: CAKI-1
CCRF-CEM = test system: CCRF-CEM
COLO 205 = test system: COLO 205
DU-145 = test system: DU-145
HCC 2998 = test system: HCC 2998
HCT-116 = test system: HCT-116
HL-60 = test system: HL-60
HOP-62 = test system: HOP-62
HOP-92 = test system: HOP-92
HT-29 = test system: HT-29
Hs-578T = test system: Hs-578T
K562 = test system: K562
KM12 = test system: KM12
LOX IMVI = test system: LOX IMVI
M14 = test system: M14
MCF7 = test system: MCF7
MDA-MB-231 = test system: MDA-MB-231
MDA-MB-435 = test system: MDA-MB-435
MDA-N = test system: MDA-N
MOLT-4 = test system: MOLT-4
NCI-H226 = test system: NCI-H226
NCI-H23 = test system: NCI-H23
NCI-H460 = test system: NCI-H460
NCI/ADR-RES = test system: NCI/ADR-RES
OVCAR-3 = test system: OVCAR-3
OVCAR-4 = test system: OVCAR-4
OVCAR-5 = test system: OVCAR-5
OVCAR-8 = test system: OVCAR-8
PC-3 = test system: PC-3
RPMI-8226 = test system: RPMI-8226
RXF 393 = test system: RXF 393
SF-268 = test system: SF-268
SF-295 = test system: SF-295
SF-539 = test system: SF-539
SK-MEL-28 = test system: SK-MEL-28
SK-MEL-2 = test system: SK-MEL-2
SK-MEL-5 = test system: SK-MEL-5
SK-OV-3 = test system: SK-OV-3
SN12C = test system: SN12C
SNB-19 = test system: SNB-19
SNB-75 = test system: SNB-75
SR = test system: SR
SW-620 = test system: SW-620
T47D = test system: T47D
TK-10 = test system: TK-10
U-251 = test system: U-251
UACC-257 = test system: UACC-257
UACC-62 = test system: UACC-62
UO-31 = test system: UO-31
EKVX = test system: EKVX
HCT-15 = test system: HCT-15
IGROV-1 = test system: IGROV-1
Malme-3M = test system: Malme-3M
NCI-H522 = test system: NCI-H522

CCOC(=O)c1sc2[n+](c1C)C(=O)/C(=C/c1ccc([N+](=O)[O-])cc1)S2
GI50 (786-0): 22.2 µM (inactive) | GI50 (A498): > 100 µM (inactive) | GI50 (A549): 23.5 µM (inactive) | GI50 (ACHN): 30.6 µM (inactive) | GI50 (CAKI-1): 15.1 µM (inactive) | GI50 (CCRF-CEM): > 100 µM (inactive) | GI50 (COLO 205): 30.7 µM (inactive) | GI50 (DU-145): 31.3 µM (inactive) | GI50 (HCC 2998): 17.2 µM (inactive) | GI50 (HCT-116): 20.8 µM (inactive) | GI50 (HL-60): 75.7 µM (inactive) | GI50 (HOP-62): 20.7 µM (inactive) | GI50 (HOP-92): > 100 µM (inactive) | GI50 (HT-29): 16.8 µM (inactive) | GI50 (Hs-578T): 23.2 µM (inactive) | GI50 (K562): 20.9 µM (inactive) | GI50 (KM12): 18.4 µM (inactive) | GI50 (LOX IMVI): 25.2 µM (inactive) | GI50 (M14): 31.6 µM (inactive) | GI50 (MCF7): 21.2 µM (inactive) | GI50 (MDA-MB-231): 46.6 µM (inactive) | GI50 (MDA-MB-435): 18 µM (inactive) | GI50 (MDA-N): 27.7 µM (inactive) | GI50 (MOLT-4): 22.2 µM (inactive) | GI50 (NCI-H226): 28.3 µM (inactive) | GI50 (NCI-H23): 16.1 µM (inactive) | GI50 (NCI-H460): 19.7 µM (inactive) | GI50 (NCI/ADR-RES): 13.8 µM (inactive) | GI50 (OVCAR-3): 9.08 µM (inactive) | GI50 (OVCAR-4): 56.5 µM (inactive) | GI50 (OVCAR-5): 31.7 µM (inactive) | GI50 (OVCAR-8): 19.5 µM (inactive) | GI50 (PC-3): 18.9 µM (inactive) | GI50 (RPMI-8226): 10.4 µM (inactive) | GI50 (RXF 393): 29.8 µM (inactive) | GI50 (SF-268): 12.9 µM (inactive) | GI50 (SF-295): 18.5 µM (inactive) | GI50 (SF-539): 21.2 µM (inactive) | GI50 (SK-MEL-28): 27.4 µM (inactive) | GI50 (SK-MEL-2): 20.7 µM (inactive) | GI50 (SK-MEL-5): 38.8 µM (inactive) | GI50 (SK-OV-3): 23.8 µM (inactive) | GI50 (SN12C): 36.6 µM (inactive) | GI50 (SNB-19): 45.2 µM (inactive) | GI50 (SNB-75): 20.5 µM (inactive) | GI50 (SR): 24.3 µM (inactive) | GI50 (SW-620): 28.5 µM (inactive) | GI50 (T47D): 25.5 µM (inactive) | GI50 (TK-10): 20.6 µM (inactive) | GI50 (U-251): 17.3 µM (inactive) | GI50 (UACC-257): 28.1 µM (inactive) | GI50 (UACC-62): 17.9 µM (inactive) | GI50 (UO-31): 15 µM (inactive)

Clc1ccc(C2ON=C(c3ccccc3)N2C23CC4CC(CC(C4)C2)C3)c(Cl)c1 (stereo not given)
GI50 (786-0): > 10 µM (inactive) | GI50 (A498): > 10 µM (inactive) | GI50 (A549): > 10 µM (inactive) | GI50 (ACHN): > 10 µM (inactive) | GI50 (CAKI-1): > 10 µM (inactive) | GI50 (CCRF-CEM): > 10 µM (inactive) | GI50 (COLO 205): > 10 µM (inactive) | GI50 (DU-145): > 10 µM (inactive) | GI50 (EKVX): > 10 µM (inactive) | GI50 (HCC 2998): > 10 µM (inactive) | GI50 (HCT-116): > 10 µM (inactive) | GI50 (HCT-15): > 10 µM | GI50 (HOP-62): > 10 µM (inactive) | GI50 (HOP-92): > 10 µM (inactive) | GI50 (HT-29): > 10 µM (inactive) | GI50 (Hs-578T): > 10 µM (inactive) | GI50 (IGROV-1): > 10 µM (inactive) | GI50 (K562): > 10 µM (inactive) | GI50 (KM12): > 10 µM (inactive) | GI50 (LOX IMVI): > 10 µM (inactive) | GI50 (M14): > 10 µM (inactive) | GI50 (MCF7): > 10 µM (inactive) | GI50 (MDA-MB-231): > 10 µM (inactive) | GI50 (MDA-MB-435): > 10 µM (inactive) | GI50 (MDA-N): > 10 µM (inactive) | GI50 (MOLT-4): > 10 µM (inactive) | GI50 (Malme-3M): > 10 µM (inactive) | GI50 (NCI-H226): > 10 µM (inactive) | GI50 (NCI-H23): > 10 µM (inactive) | GI50 (NCI-H460): > 10 µM (inactive) | GI50 (NCI-H522): > 10 µM (inactive) | GI50 (NCI/ADR-RES): > 10 µM (inactive) | GI50 (OVCAR-3): > 10 µM (inactive) | GI50 (OVCAR-4): > 10 µM (inactive) | GI50 (OVCAR-5): > 10 µM (inactive) | GI50 (OVCAR-8): > 10 µM (inactive) | GI50 (PC-3): > 10 µM (inactive) | GI50 (RPMI-8226): > 10 µM (inactive) | GI50 (RXF 393): > 10 µM (inactive) | GI50 (SF-268): > 10 µM (inactive) | GI50 (SF-295): > 10 µM (inactive) | GI50 (SF-539): > 10 µM (inactive) | GI50 (SK-MEL-28): > 10 µM (inactive) | GI50 (SK-MEL-2): > 10 µM (inactive) | GI50 (SK-MEL-5): > 10 µM (inactive) | GI50 (SK-OV-3): > 10 µM (inactive) | GI50 (SN12C): > 10 µM (inactive) | GI50 (SNB-19): > 10 µM (inactive) | GI50 (SNB-75): > 10 µM (inactive) | GI50 (SW-620): > 10 µM (inactive) | GI50 (T47D): > 10 µM (inactive) | GI50 (TK-10): > 10 µM (inactive) | GI50 (U-251): > 10 µM (inactive) | GI50 (UACC-257): > 10 µM (inactive) | GI50 (UACC-62): > 10 µM (inactive) | GI50 (UO-31): > 10 µM (inactive)

COc1cc(OC)cc(Oc2nc3cc(N)cc(N)c3nc2-c2ccccc2)c1
GI50 (786-0): 2.19 µM (inactive) | GI50 (A498): 1.95 µM (inactive) | GI50 (ACHN): 4.25 µM (inactive) | GI50 (CAKI-1): 4.19 µM (inactive) | GI50 (DU-145): 4.52 µM (inactive) | GI50 (PC-3): 3.85 µM (inactive) | GI50 (RPMI-8226): 2.86 µM (inactive) | GI50 (RXF 393): 1.02 µM (active) | GI50 (SN12C): 4.4 µM (inactive) | GI50 (TK-10): 1.73 µM (inactive) | GI50 (UO-31): 3.44 µM (inactive)
